What was measured:
[1] = tested on: Herpes Simplex Virus 1 (HSV1); assay: HSV1 infection of organoid-derived conjunctival ALI cultures, viral titers by qPCR; assay type: cell-based; settings: 10 μM Acyclovir in bottom compartment after virus incubation; 17-day-old human conjunctival ALI cultures; followed 96 hours
Description: To model HSV1 infection, we exposed the apical surface of fully differentiated 17-day-old ALI cultures for 3 hours to an HSV1 strain whose capsid protein VP26 was tagged with tdTomato (hereafter called HSV1-tdTomato, FIG. 6A). HSV1 titrer increased by 5 logs over the course of 96 hours after initial incubation with HSV1, implying a productive infection of the conjunctival ALI culture with HSV1 (FIG. 6B). In addition, we observed that the tdTomato signal increased over time in HSV1-infected ALI cultures when imaged using an Auto-EVOS microscope (Thermo Fisher Scientific) (Data not shown). […] Acyclovir, an inhibitor of HSV1 DNA polymerase, is commonly given to patients with HSV1-induced conjunctivitis. Indeed, the infection was blocked when ALI cultures were treated with 10 μM Acyclovir (FIG. 6A-B). Thus, organoid-derived ALI cultures support HSV1 infection and represent a human ocular surface model for HSV1 infection.
Human organoids (5-7 days after split) were harvested, trypsinized to single cells using 0.25% Trypsin/EDTA (ThermoFisher Scientific) for 5 minutes and 100,000 cells were seeded in 100 μL human expansion medium on 6.5 mm-wide transwells (Corning or Greiner). […]
Herpes Simplex Virus 1 containing endogenously tagged […] capsid protein with tdTomato (HSV1-tdTomato) was used. […] Viral titer quantification was performed as indicated below. […]

[2] = tested on: human Adenovirus 8 (hAdV8); assay: hAdV8 infection of organoid-derived conjunctival ALI cultures, viral titers by qPCR and cytopathic effects; assay type: cell-based; settings: 17-day-old conjunctival ALI cultures, up to 96 hours; for reversal of adenoviral (hAdV8) infection: 10 μM Acyclovir, 60 μM Cidofovir or 20 μM Nelfinavir
Source text: Adenoviruses are the leading cause of viral conjunctivitis. Yet, to date, no medication is available, partly because there is no model system for this type of ocular infection. An hAdV8 strain, isolated from a patient was provided by Dr. Nobuyo Yawata and Dr. Makoto Yawata (Kyushu University, Japan and NUS, Singapore) (see Yawata, N., and Yawata, M. 2022. Assessing the Response of Human NK Cell Subsets to Infection by Clinically Isolated Virus Strains. Methods Mol Biol 2463, 205-220. https://doi.org/10.1007/978-1-0716-2160-8_15). hAdV8 was added to 17-day-old conjunctival ALI cultures (FIG. 6E). Conjunctival ALI cultures were readily infected by hAdV8, as confirmed by the viral titre measured by qPCR (not shown). CPEs were visible starting from 48 hours after infection: infected cells darkened and were extruded from the epithelium. We then tested several antiviral drugs experimentally applied for adenoviral conjunctivitis (Acyclovir, Cidofovir and Nelfinavir) to test their efficacy in blocking the infection.
Human organoids (5-7 days after split) were harvested, trypsinized to single cells using 0.25% Trypsin/EDTA (ThermoFisher Scientific) for 5 minutes and 100,000 cells were seeded in 100 μL human expansion medium on 6.5 mm-wide transwells (Corning or Greiner). Human expansion medium was added to the lower compartment. After 3 to 4 days, when cells had reached confluency, medium from the upper compartment was removed to lift the cultures to air-liquid interface (ALI). The ALI cultures were maintained up to 22 days. The medium in the bottom compartment was changed every 3-4 days.
An hAdV8 strain isolated from a patient was used. Similar to HSV1 infection, hAdV8 at MOI 10 was added to the ALI culture in 50 μL PBS for 3 hours, before being washed away. Every 24 hours, the shed viruses were collected in 100 μL PBS and stored until further processing. If indicated, 10 μM Acyclovir (PHR1254, Sigma-Aldrich), 60 μM Cidofovir (C5874, Sigma-Aldrich) or 20 μM Nelfinavir (PZ0013, Sigma-Aldrich) was added to the bottom compartment after incubating with the virus. hAdV8-infected ALI cultures were kept for up to 4 days and, if required, fixed.
At the time of processing of the pellets for organoids and supernatants for ALI cultures, DNA was extracted using Zymogen Quick-DNA Microprep kit (ZY-D3020, Zymogen). DNA was systematically resuspended in 15 μL nuclease-free water (QIAGEN). Viral DNA was then quantified by qPCR as follow: 5 μL of the DNA extract was mixed together with 5 μL of SYBR green (Bio-Rad) containing HSV1 detection primers (HSV1-F: […] (SEQ ID NO: 13) and HSV1-R: […] (SEQ ID NO: 14)) or hAdV8 detection primers (hAdV8-F: […] (SEQ ID NO: 15) and hAdV8-R: […] (SEQ ID NO: 16). The SYBR green was mixed with 10 μM primer mix at a ratio 10:1. Technical duplicates were assessed by qPCR. The following program was used for viral DNA amplification: 95° C. for 2 minutes, followed by 40 cycles of 98° C. for 15 seconds, 60° C. for 15 seconds and 72° C. for 15 seconds. For quantifying the viral DNA content in ALI supernatants, we amplified 179 bp of HSV1-tdTomato genome using HSV1-F and HSV1-R and 1004 bp of the hAdV8 genome using hAdV8-F and hAdV8-R. We cloned both in a pJet vector (Thermo Fisher Scientific) and used it to make a standard curve ranging from 2.104 to 2.109 copies of viral genome according to Addgene instructions (https://www.addgene.org/protocols/aav-titration-qpcr-using-sybr-green-technology/). […]

SMILES | HSV1 infection (HSV1 titers detected by qPCR) [1] | reversal of adenoviral (hAdV8) infection [2] | cytopathic effects (CPEs) after hAdV8 infection ([2]; 60 μM Cidofovir) | hAdV8 viral titre (qPCR) ([2]; 60 μM Cidofovir)
Nc1nc2c(ncn2COCCO)c(=O)[nH]1 [Acyclovir] | blocked | only Cidofovir could reverse adenoviral infection | – | –
Nc1ccn(C[C@@H](CO)OCP(=O)(O)O)c(=O)n1 [Cidofovir] | – | could reverse adenoviral infection | absence | decrease
Cc1c(O)cccc1C(=O)N[C@@H](CSc1ccccc1)[C@H](O)CN1C[C@H]2CCCC[C@H]2C[C@H]1C(=O)NC(C)(C)C [Nelfinavir] | – | only Cidofovir could reverse adenoviral infection | – | –

Reference: patent US20260265687A1, “OCULAR ORGANOIDS” (KONINKLIJKE NEDERLANDSE AKADEMIE VAN WETENSCHAPPEN, priority 2023, published 2026)
